# Patent US5753617A, “Peptide inhibitors of cellular adhesion” (Centocor, Inc., priority 1995, dated 1998)
# Where two headings read alike, the source gives them in different places. Where a SMILES comes first, the peptide text is derived from it. Bridges are numbered along the chain shown (N, C = ends). [ ]: non-standard residue; d: D form. The star is where a group is joined. NHBu = CCCCN*
# Assays:
# P-selectin = biological target: T1, P-selectin (Homo sapiens, UniProt P16109); experiment: Inhibition of human neutrophil adhesion to purified P-selectin immobilized on plastic wells; assay type: cell-based; conditions: inhibiting the binding of human neutrophils to P-selectin
# T1 construct: P-selectin is isolated from human platelet lysates; from tissue; host or cells: human platelets (outdated platelet packs from a blood bank)
# T1 sequence (P16109 42-830): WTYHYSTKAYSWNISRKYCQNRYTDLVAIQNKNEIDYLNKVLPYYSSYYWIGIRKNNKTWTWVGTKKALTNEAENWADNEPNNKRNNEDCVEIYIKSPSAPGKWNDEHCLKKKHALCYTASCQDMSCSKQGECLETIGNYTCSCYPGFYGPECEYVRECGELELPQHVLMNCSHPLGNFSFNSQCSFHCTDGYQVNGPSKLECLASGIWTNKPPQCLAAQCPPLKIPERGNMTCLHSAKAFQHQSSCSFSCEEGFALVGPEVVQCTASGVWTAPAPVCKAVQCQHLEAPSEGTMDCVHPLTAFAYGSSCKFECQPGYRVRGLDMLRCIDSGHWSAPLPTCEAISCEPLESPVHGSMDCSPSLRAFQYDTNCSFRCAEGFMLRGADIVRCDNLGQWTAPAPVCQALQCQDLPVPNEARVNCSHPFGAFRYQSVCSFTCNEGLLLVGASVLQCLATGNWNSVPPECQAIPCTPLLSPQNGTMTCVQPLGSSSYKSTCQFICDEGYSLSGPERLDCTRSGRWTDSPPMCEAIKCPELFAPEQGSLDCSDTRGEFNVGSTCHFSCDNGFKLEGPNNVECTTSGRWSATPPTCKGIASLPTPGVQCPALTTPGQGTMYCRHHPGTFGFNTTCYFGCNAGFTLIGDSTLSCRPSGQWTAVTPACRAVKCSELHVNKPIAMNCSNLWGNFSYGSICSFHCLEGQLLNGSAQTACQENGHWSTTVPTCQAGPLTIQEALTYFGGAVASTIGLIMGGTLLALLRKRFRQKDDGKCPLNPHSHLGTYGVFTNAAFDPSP
# Method in brief: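 Isolated human neutrophils (2×10^5 per well) in HBSS with Ca2+/Mg2+ and HSA added to wells coated overnight at 4° C with platelet-derived P-selectin (5 micrograms/mL), HSA-blocked; 20 min at 22° C. Nonadherent cells removed by inverted centrifugation at 150 g; adherent cells quantified by myeloperoxidase activity.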
# [1] = system: neutrophil influx in thioglycolate-induced peritonitis; experiment: Inhibition of neutrophil influx in a rat model of thioglycolate-induced peritonitis; assay type: in vivo
# Experimental: CD-1 rats (175-200 g) were injected i.p. with 10 ml thioglycollate medium (BBL #21195/21196 lot#H1KBGP). At -5 minutes, 1.5 hours, and 3.5 hours post thioglycollate injection 5 rats were injected with D-arginyl-D-lysyl-cyclo(D-cysteinyl-glycyl-phenylalanyl-D-cysteinyl)-D-tryptophyl-D-threonyl-D-tryptophyl-D-valineamide (Preferred peptide (19)) (0.75 mls at -5, 0.25 mls at 1.5 and 0.25 mls at 3.5). 5 rats were injected with vehicle at the same time points (0.75 mls at -5, 0.50 mls at 1.5, and 0.25 mls at 3.5). 5 rats received thiogycollate only and served as controls. At 4 hours post thioglycollate injection all animals were sacrificed by CO2 asphyxiation. Neutrophils were harvested by flushing the peritoneal cavity with 50 mls of Hanks balanced salt solution w/o Ca and Mg (JHR Biosciences 55-02178P Lot# IL3697) containing 0.3% ultrapure EDTA (JT Baker 4040-01 lot# D42704). White cells were then counted using the Danam Vet 8 cell counter.
# [2] = disulfide bond, water
compound,measurement,setting,value
CC(C)[C@@H](NC(=O)[C@@H](Cc1c[nH]c2ccccc12)NC(=O)[C@H](NC(=O)[C@@H](Cc1c[nH]c2ccccc12)NC(=O)[C@H]1CSSC[C@@H](NC(=O)[C@@H](CCCCN)NC(=O)[C@H](N)CCCNC(=N)N)C(=O)NCC(=O)N[C@@H](Cc2ccccc2)C(=O)N1)[C@H](C)O)C(N)=O [(19)] (H-[dR][dK][dC]GF[dC][dW][dT][dW][dV]-NH2; disulfide 3-6),IC50,P-selectin,6 µM
same,decrease in neutrophil influx in response to thioglycolate stimulation,"[1]; CD-1 rats, thioglycollate i.p., peptide injected at -5 minutes, 1.5 hours and 3.5 hours, peritoneal cells counted at 4 hours",67%
CC(C)[C@@H](NC(=O)[C@@H](Cc1c[nH]c2ccccc12)NC(=O)[C@H](NC(=O)[C@@H](Cc1c[nH]c2ccccc12)NC(=O)[C@H]1CSSC[C@@H](NC(=O)[C@@H](CCCCN)NC(=O)[C@H](N)CCCNC(=N)N)C(=O)N2CCC[C@H]2C(=O)N[C@@H](Cc2ccccc2)C(=O)N1)[C@H](C)O)C(N)=O [(84)] (H-[dR][dK][dC]PF[dC][dW][dT][dW][dV]-NH2; disulfide 3-6),IC50,P-selectin,26.4 µM
same,"ring closure, yield of all isomers","[2]; from CC(C)[C@@H](NC(=O)[C@@H](Cc1c[nH]c2ccccc12)NC(=O)[C@H](NC(=O)[C@@H](Cc1c[nH]c2ccccc12)NC(=O)[C@@H](CS)NC(=O)[C@H](Cc1ccccc1)NC(=O)[C@@H]1CCCN1C(=O)[C@@H](CS)NC(=O)[C@@H](CCCCN)NC(=O)[C@H](N)CCCNC(=N)N)[C@H](C)O)C(N)=O, air (copper wire, ammonium acetate pH 8.5), 0.756 mM, 25.0 °C",12%
CC(C)[C@@H]1NC(=O)CNC(=O)[C@H](NC(=O)[C@@H](CCCCN)NC(=O)[C@H](N)CCCNC(=N)N)CSSC[C@H](C(=O)N[C@H](Cc2c[nH]c3ccccc23)C(=O)N[C@@H](C(=O)N[C@H](Cc2c[nH]c3ccccc23)C(=O)N[C@@H](C(N)=O)C(C)C)[C@H](C)O)NC1=O [(89)] (H-[dR][dK][dC]GV[dC][dW][dT][dW][dV]-NH2; disulfide 3-6),IC50,P-selectin,22.3 µM
same,"ring closure, yield of all isomers","[2]; from CC(C)[C@H](NC(=O)CNC(=O)[C@@H](CS)NC(=O)[C@@H](CCCCN)NC(=O)[C@H](N)CCCNC(=N)N)C(=O)N[C@H](CS)C(=O)N[C@H](Cc1c[nH]c2ccccc12)C(=O)N[C@@H](C(=O)N[C@H](Cc1c[nH]c2ccccc12)C(=O)N[C@@H](C(N)=O)C(C)C)[C@H](C)O, DMSO, 0.387 mM, 25.0 °C, 72.0 h",4%
CC(C)[C@@H](NC(=O)[C@@H](CCCNC(=N)N)NC(=O)[C@H](NC(=O)[C@@H](Cc1c[nH]c2ccccc12)NC(=O)[C@H]1CSSC[C@@H](NC(=O)[C@@H](CCCCN)NC(=O)[C@H](N)CCCNC(=N)N)C(=O)NCC(=O)N[C@@H](Cc2ccccc2)C(=O)N1)[C@H](C)O)C(N)=O [(90)] (H-[dR][dK][dC]GF[dC][dW][dT][dR][dV]-NH2; disulfide 3-6),IC50,P-selectin,9.9 µM
same,"ring closure, yield of all isomers","[2]; from CC(C)[C@@H](NC(=O)[C@@H](CCCNC(=N)N)NC(=O)[C@H](NC(=O)[C@@H](Cc1c[nH]c2ccccc12)NC(=O)[C@@H](CS)NC(=O)[C@H](Cc1ccccc1)NC(=O)CNC(=O)[C@@H](CS)NC(=O)[C@@H](CCCCN)NC(=O)[C@H](N)CCCNC(=N)N)[C@H](C)O)C(N)=O, DMSO, 0.747 mM, 16.0 h",18.5%
CC[C@@H](C)[C@H]1NC(=O)[C@H](NC(=O)[C@@H](CCCCN)NC(=O)[C@H](N)CCCNC(=N)N)CSSC[C@H](C(=O)N[C@H](Cc2c[nH]c3ccccc23)C(=O)N[C@@H](C(=O)N[C@H](Cc2c[nH]c3ccccc23)C(=O)N[C@@H](C(N)=O)C(C)C)[C@H](C)O)NC(=O)[C@H]([C@@H](C)CC)NC1=O [(92)] (H-[dR][dK][dC][dI]I[dC][dW][dT][dW][dV]-NH2; disulfide 3-6),IC50,P-selectin,2.4 µM
same,"ring closure, yield of all isomers","[2]; from CC[C@@H](C)[C@@H](NC(=O)[C@@H](CS)NC(=O)[C@@H](CCCCN)NC(=O)[C@H](N)CCCNC(=N)N)C(=O)N[C@H](C(=O)N[C@H](CS)C(=O)N[C@H](Cc1c[nH]c2ccccc12)C(=O)N[C@@H](C(=O)N[C@H](Cc1c[nH]c2ccccc12)C(=O)N[C@@H](C(N)=O)C(C)C)[C@H](C)O)[C@@H](C)CC, DMSO, 0.0765 mM, 24.0 h",17.5%
CC[C@@H](C)[C@H]1NC(=O)[C@H](NC(=O)[C@@H](CCCCN)NC(=O)[C@H](N)CCCNC(=N)N)CSSC[C@H](C(=O)N[C@H](Cc2c[nH]c3ccccc23)C(=O)N[C@@H](C(=O)N[C@H](Cc2c[nH]c3ccccc23)C(=O)N[C@@H](C(N)=O)C(C)C)[C@H](C)O)NC(=O)[C@H](Cc2ccccc2)NC1=O [(93)] (H-[dR][dK][dC][dI]F[dC][dW][dT][dW][dV]-NH2; disulfide 3-6),IC50,P-selectin,67.5 µM
same,"ring closure, yield of all isomers","[2]; from CC[C@@H](C)[C@@H](NC(=O)[C@@H](CS)NC(=O)[C@@H](CCCCN)NC(=O)[C@H](N)CCCNC(=N)N)C(=O)N[C@@H](Cc1ccccc1)C(=O)N[C@H](CS)C(=O)N[C@H](Cc1c[nH]c2ccccc12)C(=O)N[C@@H](C(=O)N[C@H](Cc1c[nH]c2ccccc12)C(=O)N[C@@H](C(N)=O)C(C)C)[C@H](C)O, DMSO, 0.671 mM, 16.0 h",22.3%
CC(C)[C@@H](NC(=O)[C@@H](Cc1c[nH]c2ccccc12)NC(=O)[C@H](NC(=O)[C@@H](Cc1c[nH]c2ccccc12)NC(=O)[C@H]1CSSC[C@@H](NC(=O)[C@@H](CCCCN)NC(=O)[C@H](N)CCCNC(=N)N)C(=O)N[C@@H](Cc2c[nH]cn2)C(=O)N[C@@H](Cc2ccccc2)C(=O)N1)[C@H](C)O)C(N)=O [(94)] (H-[dR][dK][dC]HF[dC][dW][dT][dW][dV]-NH2; disulfide 3-6),IC50,P-selectin,2.2 µM
same,"ring closure, yield of all isomers","[2]; from CC(C)[C@@H](NC(=O)[C@@H](Cc1c[nH]c2ccccc12)NC(=O)[C@H](NC(=O)[C@@H](Cc1c[nH]c2ccccc12)NC(=O)[C@@H](CS)NC(=O)[C@H](Cc1ccccc1)NC(=O)[C@H](Cc1c[nH]cn1)NC(=O)[C@@H](CS)NC(=O)[C@@H](CCCCN)NC(=O)[C@H](N)CCCNC(=N)N)[C@H](C)O)C(N)=O, DMSO, 0.714 mM",10.7%
CCCCNC(=O)[C@H](CCC(N)=O)NC(=O)[C@@H](Cc1c[nH]c2ccccc12)NC(=O)[C@H](NC(=O)[C@@H](Cc1c[nH]c2ccccc12)NC(=O)[C@H]1CSSC[C@@H](NC(=O)[C@@H](CCCCN)NC(=O)[C@H](N)CCCNC(=N)N)C(=O)NCC(=O)N[C@@H](Cc2ccccc2)C(=O)N1)[C@H](C)O [(102)] (H-[dR][dK][dC]GF[dC][dW][dT][dW]Q-NHBu; disulfide 3-6),IC50,P-selectin,8 µM
same,"ring closure, yield of all isomers","[2]; from CCCCNC(=O)[C@H](CCC(N)=O)NC(=O)[C@@H](Cc1c[nH]c2ccccc12)NC(=O)[C@H](NC(=O)[C@@H](Cc1c[nH]c2ccccc12)NC(=O)[C@@H](CS)NC(=O)[C@H](Cc1ccccc1)NC(=O)CNC(=O)[C@@H](CS)NC(=O)[C@@H](CCCCN)NC(=O)[C@H](N)CCCNC(=N)N)[C@H](C)O, DMSO, 0.681 mM",21.5%
CC(C)[C@@H](NC(=O)[C@@H](Cc1c[nH]c2ccccc12)NC(=O)[C@H](NC(=O)[C@@H](Cc1c[nH]c2ccccc12)NC(=O)[C@H]1CSSC[C@@H](NC(=O)[C@@H](CCCCN)NC(=O)[C@H](N)CCCNC(=N)N)C(=O)NCC(=O)N[C@@H](Cc2ccccc2)C(=O)N1)C(C)C)C(=O)O [(103)] (H-[dR][dK][dC]GF[dC][dW][dV][dW][dV]-OH; disulfide 3-6),IC50,P-selectin,42.7 µM
same,"ring closure, yield of all isomers","[2]; from CC(C)[C@@H](NC(=O)[C@@H](Cc1c[nH]c2ccccc12)NC(=O)[C@H](NC(=O)[C@@H](Cc1c[nH]c2ccccc12)NC(=O)[C@@H](CS)NC(=O)[C@H](Cc1ccccc1)NC(=O)CNC(=O)[C@@H](CS)NC(=O)[C@@H](CCCCN)NC(=O)[C@H](N)CCCNC(=N)N)C(C)C)C(=O)O, air, Cu wire, ammonium acetate, 0.605 mM, 22.0 h",2.7%
"CC(C)[C@@H](NC(=O)[C@@H](Cc1c[nH]c2ccccc12)NC(=O)[C@H](NC(=O)[C@@H](Cc1c[nH]c2ccccc12)NC(=O)[C@H]1CSSC[C@@H](NC(=O)[C@@H](CCCCN)NC(=O)[C@H](N)CCCNC(=N)N)C(=O)NCC(=O)N[C@@H](Cc2ccccc2)C(=O)N1)[C@H](C)O)C(N)=O [Preferred peptide (19), D-Arginyl-D-lysyl-cyclo(D-cysteinyl-glycyl-phenylalanyl-D-cysteinyl-)-D-tryptophyl-D-threonyl-D-tryptophyl-D-valine-amide] (H-[dR][dK][dC]GF[dC][dW][dT][dW][dV]-NH2; disulfide 3-6)",inhibition of neutrophil influx (result in words),"[1]; rat thioglycolate-induced peritonitis, FIG. III",inhibition of neutrophil influx
